According to patent US7253178B2, “Carboxylic acids” (Eisai Co., Ltd., priority 2001, dated 2007):

Tests used:
Assay in all cases: Transcriptional activity, GAL4-PPAR LBD chimera / PLAP reporter in CV-1 cells
Format in all cases: cell-based
PPAR γ = molecular target: T1, PPAR γ (Homo sapiens, UniProt P37231); conditions: GAL4-PPARγ LBD (174-475), PLAP activity 24 hours after addition, read-out: Transcriptional activities EC50 PPAR γ
T1 construct: 174-475 (PPARγ); expressed in transfected cells; host or cells: CV-1 (ATCC CCL-70)
T1 sequence (P37231 174-475 isoform P37231-2): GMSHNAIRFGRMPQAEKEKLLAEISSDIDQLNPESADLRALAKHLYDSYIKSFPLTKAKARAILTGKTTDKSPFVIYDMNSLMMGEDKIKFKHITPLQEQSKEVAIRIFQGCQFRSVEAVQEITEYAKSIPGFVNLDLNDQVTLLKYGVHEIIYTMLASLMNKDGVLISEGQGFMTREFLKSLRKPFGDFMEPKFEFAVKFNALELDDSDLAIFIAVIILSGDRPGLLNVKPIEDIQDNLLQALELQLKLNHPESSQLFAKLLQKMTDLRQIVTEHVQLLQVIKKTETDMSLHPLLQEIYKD
Description: (§1) A GAL4-PPAR LBD chimera expression vector was constructed by ligating human PPAR 167-468 (PPARα), 138-440 (NUC-1) and 174-475 (PPARγ) amino acid regions (LBD: Ligand Binding Domain) to a yeast transcriptional factor GAL4 1-147 amino acid region. As the reporter gene, PLAP (Placental Alkaline Phosphatase) was used, and this was ligated downstream of a TK promoter containing a 5-copy GAL4 DNA binding element to construct a vector. As host cells, CV-1 (ATCC CCL-70) was used. That is, CV-1 cells were spread at a density of 5×10^5 cells on a 35-mm dish and cultured in 10% FCS/DMEM for 24 hours, and using FuGENE 6 transfection reagent, the cells were co-transfected with the GAL4-PPAR LBD expression vector and GAL4 DBD-TK-PLAP expression vector. 24 hours after this transfection, the cells were spread again on a 96-well plate at a density of 1×10^4/well and further cultured for 24 hours. After 24 hours, the medium was exchanged with DMEM containing 10% FCS, which was previously treated at 65° C. for inactivating intrinsic alkaline phosphatase, and a test compound was added at an arbitrary concentration. The transcriptional activity was determined in terms of PLAP activity secreted 24 hours after addition of the compound, to calculate EC50. The PLAP activity was determined after adding 50 μl assay buffer and 50 μl chemoluminescence substrate to 10 μl culture supernatant and incubating the mixture at room temperature for 1 hour. The transcriptional activities for PPAR, PPARβ(δ) and PPARγ are shown respectively in Table 1.

PPAR β = molecular target: T2, PPAR β (Homo sapiens, UniProt Q03181); conditions: GAL4-NUC-1 LBD (138-440), PLAP activity 24 hours after addition, read-out: Transcriptional activities EC50 PPAR β
T2 construct: 138-440 (NUC-1); expressed in transfected cells; host or cells: CV-1 (ATCC CCL-70)
T2 sequence (Q03181 138-440): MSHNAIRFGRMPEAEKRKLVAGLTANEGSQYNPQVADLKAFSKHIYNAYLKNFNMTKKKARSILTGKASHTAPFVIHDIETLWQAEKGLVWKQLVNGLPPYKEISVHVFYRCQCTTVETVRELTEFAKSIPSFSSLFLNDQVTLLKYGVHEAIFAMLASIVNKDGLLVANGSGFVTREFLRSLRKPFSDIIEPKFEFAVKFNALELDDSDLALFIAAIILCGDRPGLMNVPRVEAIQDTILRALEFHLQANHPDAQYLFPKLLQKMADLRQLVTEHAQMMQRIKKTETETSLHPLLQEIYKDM
Description: as §1

PPAR α = molecular target: T3, PPAR α (Homo sapiens, UniProt Q07869); conditions: GAL4-PPARα LBD (167-468), PLAP activity 24 hours after addition, read-out: Transcriptional activities EC50 PPAR α
T3 construct: human PPAR 167-468 (PPARα); expressed in transfected cells; host or cells: CV-1 (ATCC CCL-70)
T3 sequence (Q07869 167-468): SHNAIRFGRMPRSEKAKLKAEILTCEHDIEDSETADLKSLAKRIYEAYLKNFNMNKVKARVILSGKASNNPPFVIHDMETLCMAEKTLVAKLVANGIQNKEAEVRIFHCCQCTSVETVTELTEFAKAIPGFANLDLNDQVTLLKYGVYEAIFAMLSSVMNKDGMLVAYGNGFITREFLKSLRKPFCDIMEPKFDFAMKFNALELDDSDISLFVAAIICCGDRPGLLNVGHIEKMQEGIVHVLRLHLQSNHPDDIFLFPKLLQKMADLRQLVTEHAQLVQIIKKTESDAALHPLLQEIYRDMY
Description: as §1

CC(C)OC(Cc1ccnc(OCCOc2ccc(Cl)cc2Cl)c1)C(=O)O (stereo not drawn) [Example 1, 3-{2-[2-(2,4-Dichlorophenoxy)ethoxy]-4-pyridyl}-2-isopropoxypropanoic acid]
EC50 (PPAR γ): 68.5 nM
EC50 (PPAR β): 1410 nM
EC50 (PPAR α): 5.6 nM

CCOC(Cc1ccnc(OCCOc2ccc(C(F)(F)F)cc2)c1)C(=O)O (stereo not drawn) [Example 19, 2-Ethoxy-3-(2-{2-[4-(trifluoromethyl)phenoxy]ethoxy}-4-pyridyl)propanoic acid]
EC50 (PPAR γ): 64.1 nM
EC50 (PPAR β): 339 nM
EC50 (PPAR α): 4.9 nM

CCOC(Cc1ccnc(OCCOc2ccc(C(C)(C)C)cc2)c1)C(=O)O (stereo not drawn) [Example 25, 3-(2-{2-[4-(tert-Butyl)phenoxy]ethoxy}-4-pyridyl)-2-ethoxypropanoic acid]
EC50 (PPAR γ): 76.3 nM
EC50 (PPAR β): 1580 nM
EC50 (PPAR α): 2.7 nM
